Here are results for two compounds from PMC8552062, “Contributions of UDP-Glucuronosyltransferases to Human Hepatic and Intestinal Metabolism of Ticagrelor and Inhibition of UGTs and Cytochrome P450 Enzymes by Ticagrelor and its Glucuronidated Metabolite” (Frontiers in Pharmacology, 2021).

What all share (assay type): in vitro ADME
One series concerns the target T1, CYP2C19 (Homo sapiens, UniProt P33261).
T1 construct: co-incubation ticagrelor-O-Glu with selective P450 probe substrates in HLM; tissue XenoTech LLC; host or cells: pooled human liver microsomes
The series can be described thus: CYP2C19 inhibition in HLM ([S]-mephenytoin 4′-hydroxylase). As for the experimental part: The potential inhibitory effects of ticagrelor-O-Glu on the activities of major CYPs, i.e., CYP2B6, CYP2C8, CYP2C9, CYP2C19, CYP2D6, and CYP3A4, were evaluated by co-incubation ticagrelor-O-Glu with selective P450 probe substrates in HLM. Each incubation mixture containing 0.2 mg/ml HLM, ticagrelor-O-Glu and respective substrate (the final substrate concentrations are close to or less than the Km values: 150 μM bupropion, 1.26 μM amodiaquine, 10 μM diclofenac, 20 μM mephenytoin, 20 μM dextromethorphan and 80 μM testosterone (in house data)) in potassium phosphate buffer (100 mM, pH 7.4) was pre-incubated at 37°C for 5 min. Then, NADPH (10 mM) was added to initiate the reaction. The final volume of the incubation mixture was 100 μl. After incubation at 37°C for specific time points, the reaction was terminated by the addition of 200 μl of ice-cold methanol solution with internal standards (diazepam and furafylline). Preliminary screening experiments with selected concentrations of ticagrelor-O-Glu (0, 1, 10, or 100 μM of the final concentration) were carried out to determine the inhibition potency. For those that produced approximately 50% inhibition of CYPs enzyme activities at a ticagrelor-O-Glu concentration between 1 and 100 μM, IC50 was further determined with various concentrations of ticagrelor-O-Glu (0, 1, 5, 10, 20, 50, and 100 μM). All the experiments were performed in triplicates. The supernatant was obtained after centrifugation at 14,000 rpm for 10 min and injected into LC-MS/MS for the analysis of the respective metabolites. The formation of respective metabolites was determined to reflect P450 isoform activities. The metabolites quantified for CYP2B6, CYP2C8, CYP2C9, CYP2C19, CYP2D6, and CYP3A4 were hydroxy bupropion, N-Desethyl amodiaquine, 4′-hydroxylation diclofenac, S-4-hydroxy mephenytoin, dextrorphan and 6β-hydroxy testosterone, respectively.
The percent inhibition relative to the control was calculated to indicate the UGTs or CYPs inhibition. […]

For series [1], the target named is T2, recombinant human UGT2B17 (Homo sapiens, UniProt O75795).
T2 construct: purchased BD Gentest; host or cells: baculovirus-infected insect cells
The series can be described thus: Ticagrelor glucuronidation screen, recombinant human UGT2B17. The settings on record: 10 μM ticagrelor. The protocol:
(§1) Ticagrelor glucuronidation was investigated in an in vitro incubation system by using HLM, HIM, and recombinant human UGTs. The incubation system consisted of enzyme sources (HLM, HIM, or human recombinant UGTs), various concentrations of ticagrelor (dissolved in 50% methanol, 1% v/v, 1, 2, 5, 10, 20, 50, 100, 200, 500 μM of final concentration), alamethicin (50 μg/mg protein), 5 mM MgCl2, 100 mM tris-HCL buffer (pH 7.4), and 5 mM UDPGA in a total volume of 100 μl. Alamethicin is a pore-forming polypeptide used to activate UGTs in HLM and HIM ([Fisher et al., 2000]). Preliminary studies were conducted to determine the optimal protein concentrations and incubation times. Linear conditions of ticagrelor-O-Glu formation from ticagrelor, i.e., HLM, 0.2 mg of protein/ml and 60 min, HIM, 0.2 mg of protein/ml and 60 min, and recombinant human UGTs, 0.2 mg of protein/ml and 60 min were selected. The incubation mixture without UDPGA was placed on ice for 15 min to activate UGT by alamethicin. After pre-incubation for 5 min at 37°C, the reactions were started by the addition of UDPGA. After another 60 min of incubation at 37°C, the reaction was terminated by adding 100 μl of acetonitrile containing internal standard (diazepam). The mixture vortexed for 2 min and then centrifuged at 14,000 rpm for 10 min at 4°C. […]

The target of the next series is T3, UGT1A3 (Homo sapiens, UniProt P35503).
T3 sequence (P35503 29-534): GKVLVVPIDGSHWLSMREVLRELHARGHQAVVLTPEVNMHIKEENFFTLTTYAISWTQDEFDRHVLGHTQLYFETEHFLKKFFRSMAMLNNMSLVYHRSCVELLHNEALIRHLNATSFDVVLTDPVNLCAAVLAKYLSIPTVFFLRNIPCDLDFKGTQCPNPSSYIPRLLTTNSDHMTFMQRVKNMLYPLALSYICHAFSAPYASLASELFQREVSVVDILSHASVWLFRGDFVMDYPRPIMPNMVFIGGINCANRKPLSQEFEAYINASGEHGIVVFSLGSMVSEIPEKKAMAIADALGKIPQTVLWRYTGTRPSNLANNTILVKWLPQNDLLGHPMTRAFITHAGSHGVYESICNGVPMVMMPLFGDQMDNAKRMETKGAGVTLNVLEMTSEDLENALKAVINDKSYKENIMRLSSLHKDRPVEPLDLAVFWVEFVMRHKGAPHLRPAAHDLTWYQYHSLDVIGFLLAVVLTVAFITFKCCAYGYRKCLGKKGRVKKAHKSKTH
Nature of the series: Ticagrelor glucuronidation by recombinant human UGT1A3. More on the design: purchased BD Gentest; host or cells: baculovirus-infected insect cells. The settings on record: recombinant human UGT1A3, pH 7.4. As for the experimental part: as §1, with “alamethicin.” for “alamethicin. After pre-incubation for 5 min at 37°C, the reactions were started by the addition of UDPGA. After another 60 min of incubation at 37°C, the reaction was terminated by adding 100 μl of acetonitrile containing internal standard (diazepam). The mixture vortexed for 2 min and then centrifuged at 14,000 rpm for 10 min at 4°C.”
Kinetic analyses were performed using the mean values of triplicate determinations with either pooled HLM, HIM, or recombinant human UGTs. All data were analyzed by nonlinear regression analysis using the GraphPad Prism 6 (GraphPad Software Inc., CA, United States). […] Intrinsic clearance (CLint) was calculated by dividing Vmax by Km.

T1 sequence (P33261 whole entry): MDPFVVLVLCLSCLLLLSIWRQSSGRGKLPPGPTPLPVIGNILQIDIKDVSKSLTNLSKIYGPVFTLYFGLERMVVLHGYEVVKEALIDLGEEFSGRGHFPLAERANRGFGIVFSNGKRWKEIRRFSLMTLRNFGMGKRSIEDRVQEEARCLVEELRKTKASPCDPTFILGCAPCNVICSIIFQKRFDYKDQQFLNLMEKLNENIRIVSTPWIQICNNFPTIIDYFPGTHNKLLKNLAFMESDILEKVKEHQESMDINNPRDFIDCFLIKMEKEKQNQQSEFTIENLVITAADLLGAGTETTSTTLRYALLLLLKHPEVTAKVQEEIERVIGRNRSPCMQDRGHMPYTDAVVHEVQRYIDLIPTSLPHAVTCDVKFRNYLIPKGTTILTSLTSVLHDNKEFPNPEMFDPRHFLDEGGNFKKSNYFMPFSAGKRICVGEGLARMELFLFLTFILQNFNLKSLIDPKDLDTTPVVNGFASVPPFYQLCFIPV
T2 sequence (O75795 24-530): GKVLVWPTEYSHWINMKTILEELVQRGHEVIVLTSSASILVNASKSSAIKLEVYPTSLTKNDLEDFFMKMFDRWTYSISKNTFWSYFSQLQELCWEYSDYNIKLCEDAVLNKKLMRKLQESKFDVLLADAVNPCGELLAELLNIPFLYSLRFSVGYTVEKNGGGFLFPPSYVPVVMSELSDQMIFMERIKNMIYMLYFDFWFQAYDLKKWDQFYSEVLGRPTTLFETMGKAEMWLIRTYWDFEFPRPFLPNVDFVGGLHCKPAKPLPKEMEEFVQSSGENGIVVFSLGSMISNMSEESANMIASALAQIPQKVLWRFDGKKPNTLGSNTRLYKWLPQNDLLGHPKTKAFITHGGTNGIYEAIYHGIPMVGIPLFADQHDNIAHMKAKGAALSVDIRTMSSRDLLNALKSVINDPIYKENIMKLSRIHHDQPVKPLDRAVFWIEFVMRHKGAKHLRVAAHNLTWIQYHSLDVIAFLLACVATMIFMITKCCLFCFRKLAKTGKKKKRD

In the case of `CCCSc1nc(N[C@@H]2C[C@H]2c2ccc(F)c(F)c2)c2nnn([C@@H]3C[C@H](OCCO[C@@H]4O[C@H](C(=O)O)[C@@H](O)[C@H](O)[C@H]4O)[C@@H](O)[C@H]3O)c2n1` [Ticagrelor-O-Glu, ticagrelor-O-glucuronide], the half-inhibitory concentration (IC50) against CYP2C19 (CYP2C19, [S]-mephenytoin 4′-hydroxylase, HLM 0.2 mg/ml) came out at 18.8 µM. Also, on CYP2C19 (human, human liver microsomes, pH 7.4, probe mephenytoin (20 μM), S-4-hydroxy mephenytoin formation, HLM, 10 μM ticagrelor-O-Glu, read-out: inhibition of CYP2C19 enzyme activity), the inhibition at 10 μM turned out to be 32.7%. Moreover, the inhibition at 100 µM at CYP2C19 (human, human liver microsomes, pH 7.4, probe mephenytoin (20 μM), S-4-hydroxy mephenytoin formation, HLM, 100 μM ticagrelor-O-Glu, read-out: inhibition of CYP2C19 enzyme activity) worked out at 83.6%.

In the case of `CCCSc1nc(N[C@@H]2C[C@H]2c2ccc(F)c(F)c2)c2nnn([C@@H]3C[C@H](OCCO)[C@@H](O)[C@H]3O)c2n1` [Ticagrelor], the “glucuronidation activity for ticagrelor” value in series [1] is recorded as “no glucuronidation activities”. Moreover, the microsomal CLint at UGT1A3 was found to be 0.04 µL/min/mg.
